According to patent US8486945B2, “Heterocyclic inhibitors of an Hh-signal cascade, medicinal compositions based thereon and methods for treating diseases caused by the aberrant activity of an Hh-signal system” (priority 2007, dated 2013):

These molecules were tested on Hh-signalling cascade (assay: Inhibition of SHh-induced alkaline phosphatase in C3H10T1/2 cells (Hh-signalling cascade inhibition)). Settings: Mus musculus, C3H 10T1/2, half maximal inhibition of SHh (0.3 μg/ml) stimulation of cell alkaline phosphatase.
Assay type: cell-based
From the text: C3H10T1/2 Cells were used for identification of inhibitors of SHh-protein signaling cascade. SHh-protein activates C3H10T1/2 cells, that leads to their osteogenic differentiation [1) Kinto N., Iwamoto M., Enomoto-Iwamoto M., Noji S., Ohuchi H., Yoshioka H., Kataoka H., Wada Y., Yuhao G., Takahashi H. E., Yoshiki S., Yamaguchi A. Fibroblasts expressing Sonic hedgehog induce osteoblast differentiation and ectopic bone formation. FEBS Lett. 1997; 404(2-3): 319-23. 2) Spinella-Jaegle S., Rawadi G., Kawai S., Gallea S., Faucheu C., Mollat P., Courtois B., Bergaud B., Ramez V., Blanchet A. M., Adelmant G., Baron R., Roman-Roman S. Sonic hedgehog increases the commitment of pluripotent mesenchymal cells into the osteoblastic lineage and abolishes adipocytic differentiation. J. Cell Sci. 2001; 114(Pt 11): 2085-94] and, in particular, to expression enhancement of alkaline phosphatase enzyme.
The cells were cultivated in DMEM medium with 10% embryonal calfish serum in incubator at 37° C., 100% humidity and 5% CO2 content. The cells were placed in 384-well plates and left for night. On the next day the tested compounds in concentration of 10 μM were added to the cells, incubated for 30 min, then recombinant (R & D Systems, USA) SHh protein in concentration of 0.3 μg/ml was added and incubation was continued for 3 days. Cells with DMSO instead of a test compound and cells without SHh protein were used as test control. For determination of the cell alkaline phosphatase activity the cells were lysed in the buffer containing 0.2% Triton-X100, lisates were incubated together with proluminescent substrate CSPD (Applied Biosystems, USA) and the resultant luminescence was measured using reader VICTOR^2V (PerkinElmer, USA).
The ability of the compounds to inhibit Hh-signalling cascade was determined using C3H10T1/2 cells in 384-well plates as described in example 1. The compounds were added in triplicates in various concentrations, prepared by multiple dilution of starting solutions (concentration dependences of cell alkaline phosphatase inhibition induced by the addition of tested compounds are shown in FIG. 1). Activity of the compounds was characterized by their concentrations produced half maximal inhibition of stimulation of cell alkaline phosphatase SHh (IC50).

Compound | IC50
Cc1nn(C(C)C(=O)N2CCN(c3ccccc3F)CC2)c(=O)c2nn(-c3ccccc3)c(C)c12 (centres unmarked) [I-1013, 2-Phenyl-3,4-dimethyl-6-{1-methyl-2-[4-(2-fluorophenyl)piperazin-1-yl]-2-oxoethyl}-2,6-dihydro-7H-pyrazolo[3,4-d]pyridazin-7-one] | < 0.5 µM
Cc1ccc(-n2nc3c(=O)n(CC(=O)Nc4ccccc4F)nc(C)c3c2C)c(C)c1 [I-1014, 2-[2-(2,4-dimethylphenyl)-3,4-dimethyl-7-oxo-2,7-dihydro-6H-pyrazolo[3,4-c]pyridazin-6-yl]-N-(2-fluorophenyl)acetamide] | < 5 µM
CCC(C(=O)N1CCOCC1)n1nc(C)c2c(C)n(-c3ccccc3)nc2c1=O (centres unmarked) [I-1015, 2-Phenyl-3,4-dimethyl-6-[1-(morpholin-4-ylcarbonyl)propyl]-2,6-dihydro-7H-pyrazolo[3,4-c]pyridazin-7-one] | < 5 µM
Cc1ccc(-n2nc3c(=O)n(CC(=O)NCc4ccc(C)o4)nc(C)c3c2C)cc1 [I-1016, 2-[2-(4-Methylphenyl)-3,4-dimethyl-7-oxo-2,7-dihydro-6H-pyrazolo[3,4-d]pyridazin-6-yl]-N-[(5-methylfuran-2-yl)methyl]acetamide] | < 5 µM
Cc1ccc(-n2nc3c(=O)n(C(C)C(=O)NCCc4cccs4)nc(C)c3c2C)cc1 (centres unmarked) [I-1017, 2-[2-(4-Methylphenyl)-3,4-dimethyl-7-oxo-2,7-dihydro-6H-pyrazolo[3,4-d]pyridazin-6-yl)-N-[2-(thien-2-yl)ethyl]propanamide] | < 5 µM
CCC(C(=O)NC1CC1)n1nc(C)c2c(C)n(-c3ccc(C)cc3)nc2c1=O (centres unmarked) [I-1018, 2-[2-(4-Methylphenyl)-3,4-dimethyl-7-oxo-2,7-dihydro-6H-pyrazolo[3,4-c]pyridazin-6-yl]-N-(cyclopropyl)butanamide] | < 5 µM
Cc1nn(CCC(=O)NCc2cccnc2)c(=O)c2nn(-c3ccccc3)c(C)c12 [I-1019, 3-(2-Phenyl-3,4-dimethyl-7-oxo-2,7-dihydro-6H-pyrazolo[3,4-c]pyridazin-6-yl)-N-(pyridin-3-ylmethyl)propanamide] | < 5 µM
Cc1nn(CCC(=O)NCc2ccco2)c(=O)c2nn(-c3ccccc3)c(C)c12 [I-1020, 3-(2-Phenyl-3,4-dimethyl-7-oxo-2,7-dihydro-6H-pyrazolo[3,4-c]pyridazin-6-yl)-N-(furan-2-ylmethyl)propanamide] | < 5 µM
Cc1nn(CCC(=O)N2CCOCC2)c(=O)c2nn(-c3ccccc3)c(C)c12 [I-1021, 2-Phenyl-3,4-dimethyl-6-(3-(morpholin-4-yl)-3-oxopropyl)-2,6-dihydro-7H-pyrazolo[3,4-c]pyridazin-7-one] | < 5 µM
Cc1nn(CCC(=O)NCc2cccs2)c(=O)c2nn(-c3ccccc3)c(C)c12 [I-1022, 3-(2-Phenyl-3,4-dimethyl-7-oxo-2,7-dihydro-6H-pyrazolo[3,4-c]pyridazin-6-yl)-N-(thien-2-ylmethyl)propanamide] | < 5 µM
Cc1ccc(-n2nc3c(=O)n(CCCC(=O)NCCc4ccco4)nc(C)c3c2C)cc1 [I-1023, 4-[2-(4-Methylphenyl)-3,4-dimethyl-oxo-2,7-dihydro-6H-pyrazolo[3,4-d]pyridazin-6-yl]-N-[2-(furan-2-yl)ethyl]butanamide] | < 50 µM
CCN1CCN(C(=O)CCCn2nc(C)c3c(C)n(-c4ccc(C)cc4)nc3c2=O)CC1 [I-1024, 2-(4-Methylphenyl)-3,4-dimethyl-6-[4-(4-ethylpiperazin-1-yl)-4-oxobutyl]-2,6-dihydro-7H-pyrazolo[3,4-c]pyridazin-7-one] | < 50 µM
Cc1nn(CCCC(=O)N2CCOCC2)c(=O)c2nn(-c3ccccc3)c(C)c12 [I-1025, 2-Phenyl-3,4-dimethyl-6-[4-(morpholin-4-yl)-4-oxobutyl]-2,6-dihydro-2H-pyrazolo[3,4-c]pyridazin-7-one] | < 50 µM
Cc1nn(CCCC(=O)Nc2ccc(C(C)C)cc2)c(=O)c2nn(-c3ccccc3)c(C)c12 [I-1026, 4-(2-Phenyl-3,4-dimethyl-7-oxo-2,7-dihydro-6H-pyrazolo[3,4-d]pyridazin-6-yl)-N-[(1-methylethyl)phenyl]butanamide] | < 50 µM

The next lines start with the values.

IC50 | Compound
< 0.5 µM | Cc1cccc(N2CCN(C(=O)CN3C(=O)CSc4c3c(C)nn4-c3ccccc3)CC2C)c1 (centres unmarked) [II-1001, 3-Methyl-4-[2-(3-methyl-4-m-tolylpiperazin-1-yl)-2-oxoethyl]-1-phenyl-1,4-dihydro-pyrazolo[3,4-b][1,4]thiazin-5-one]
< 0.5 µM | Cc1nn(-c2ccccc2)c2c1N(CC(=O)Nc1cccc(C(F)(F)F)c1)C(=O)CS2 [II-1002, 2-(3-Methyl-5-oxo-1-phenyl-5,6-dihydro-1H-pyrazolo[3,4-b][1,4]thiazin-4-yl)-N-(3-trifluoromethylphenyl)acetamide]
< 5 µM | Cc1nn(-c2ccccc2)c2c1N(CC(=O)NCc1ccccn1)C(=O)CS2 [II-1003, 2-(3-Methyl-5-oxo-1-phenyl-5,6-dihydro-1H-pyrazolo[3,4-b][1,4]thiazin-4-yl)-N-(pyridin-2-ylmethyl)acetamide]
< 50 µM | COc1ccc(CCNC(=O)CN2C(=O)CSc3c2c(C)nn3-c2ccccc2)cc1OC [II-1005, N-[2-(3,4-Dimethoxyphenyl)ethyl]-2-(3-methyl-5-oxo-1-phenyl-5,6-dihydro-1H-pyrazolo[3,4-b][1,4]thiazin-4-yl)acetamide]
< 50 µM | COc1ccc(CNC(=O)CN2C(=O)CSc3c2c(C)nn3-c2ccccc2)cc1 [II-1007, N-(4-Methoxybenzyl)-2-(3-methyl-5-oxo-1-phenyl-5,6-dihydro-1H-pyrazolo[3,4-b][1,4]thiazin-4-yl)acetamide]
> 50 µM | Cc1nn(-c2ccccc2)c2c1N(CC(=O)NC(C)C)C(=O)CS2 [II-1008, N-Isopropyl-2-(3-methyl-5-oxo-1-phenyl-5,6-dihydro-1H-pyrazolo[3,4-b][1,4]thiazin-4-yl)acetamide]
> 50 µM | Cc1nn(-c2ccccc2)c2c1N(CC(=O)NCCN1CCOCC1)C(=O)CS2 [II-1010, 2-(3-Methyl-5-oxo-1-phenyl-5,6-dihydro-1H-pyrazolo[3,4-b][1,4]thiazin-4-yl)-N-(2-morpholin-4-yl)ethylacetamide]
> 50 µM | CNC(=O)CN1C(=O)CSc2c1c(C)nn2-c1ccccc1 [II-1011, N-Methyl-2-(3-methyl-5-oxo-1-phenyl-5,6-dihydro-1H-pyrazolo[3,4-b][1,4]thiazin-4-yl)acetamide]
< 0.5 µM | Cc1nn(-c2ccccc2)c2c1N(CC(=O)N1CCN(c3ccc(Cl)cc3)CC1)C(=O)CS2 [II-1012, 4-{2-[4-(4-Chlorophenyl)piperazin-1-yl]-2-oxoethyl}-3-methyl-1-phenyl-1,4-dihydropyrazolo[3,4-b][1,4]thiazin-5-one]
> 50 µM | Cc1nn(-c2ccccc2)c2c1N(CC(=O)N1CCCC1)C(=O)CS2 [II-1013, 3-Methyl-4-[2-oxo-2-(pyrrolidin-1-yl)ethyl]-1-phenyl-1,4-dihydropyrazolo[3,4-b][1,4]thiazin-5-one]
< 0.5 µM | Cc1nn(-c2ccccc2)c2c1N(CCCC(=O)N1CCN(c3ccccc3)CC1)C(=O)CS2 [II-1023, 3-Methyl-4-[4-oxo-4-(4-phenylpiperazin-1-yl)butyl]-1-phenyl-1,4-dihydropyrazolo[3,4-b][1,4]thiazin-5-one]
< 0.5 µM | Cc1nn(-c2ccccc2)c2c1N(CCCC(=O)N1CCN(c3ccccn3)CC1)C(=O)CS2 [II-1025, 3-Methyl-4-[4-oxo-4-((4-pyridin-2-yl)piperazin-1-yl)butyl]-1-phenyl-1,4-dihydropyrazolo[3,4-b][1,4]thiazin-5-one]
< 50 µM | COc1ccc(NC(=O)CCCN2C(=O)CSc3c2c(C)nn3-c2ccccc2)cc1 [II-1026, N-(4-Methoxyphenyl)-4-(3-methyl-5-oxo-1-phenyl-5,6-dihydro-1H-pyrazolo[3,4-b][1,4]thiazin-4-yl)butyramide]
< 0.5 µM | COc1cccc(C(=O)Nc2ccc(-c3cn4ccccc4n3)cc2)c1 [III-1001, N-(4-(Imidazo[1,2-a]pyridin-2-yl)phenyl)-3-methoxybenzamide]
< 50 µM | CCC(=O)Nc1ccc(-c2cn3ccccc3n2)cc1 [III-1002, N-(4-(Imidazo[1,2-a]pyridin-2-yl)phenyl)propionamide]
< 0.5 µM | O=C(Nc1ccc(-c2cn3ccccc3n2)cc1)c1ccncc1 [III-1003, N-(4-(Imidazo[1,2-a]pyridin-2-yl)phenyl)isonicotinamide]
< 5 µM | O=C(Nc1ccc(-c2cn3ccccc3n2)cc1)c1cccs1 [III-1004, N-(4-(Imidazo[1,2-a]pyridin-2-yl)phenyl)thiophen-2-carboxamide]
< 5 µM | O=C(Nc1ccc(-c2cn3ccccc3n2)cc1)c1ccc(Cl)cc1 [III-1005, 4-Chloro-N-(4-(imidazo[1,2-a]pyridin-2-yl)phenyl)benzamide]
